Results as given in BigSolDB 2.1.

COc1ccc(C(=O)O)cc1
solubility (mole fraction)
Settings	273.15 K	278.15 K	283.15 K	288.15 K	293.15 K	298.15 K	303.15 K	308.15 K	313.15 K	318.15 K
in acetonitrile	0.00105	0.00122	0.00156	0.00194	0.00231	0.00281	0.00351	0.00419	0.00492	0.00603
in chloroform	0.00116	0.00135	0.00173	0.0021	0.00251	0.00299	0.00383	0.0045	0.00538	0.00637
in ethanol	0.00549	0.00653	0.00757	0.00887	0.0101	0.0118	0.0136	0.0163	0.0188	0.0221
in ethyl acetate	0.0053	0.00601	0.00728	0.00853	0.00954	0.0112	0.0128	0.0142	0.0167	0.0207
in isopropanol	0.00377	0.00489	0.00597	0.00722	0.00872	0.0105	0.0127	0.0152	0.0176	0.0211
in methanol	0.00454	0.00526	0.00632	0.00752	0.00857	0.0102	0.0117	0.0138	0.0161	0.0193
in methyl acetate	0.00527	0.00611	0.0073	0.00849	0.00968	0.0112	0.0131	0.0153	0.0176	0.0213
in n-propanol	0.00455	0.00527	0.00631	0.00754	0.00895	0.0106	0.0127	0.0149	0.0174	0.0201
